Tested on: Plasmodium berghei
Test: Luciferase/luciferin-expressing antifolate-resistant parasites were used to infect a culture of HepG2 cells that were pre-incubated with compounds. Infected hepatocytes emit light due to the luciferase reaction. Assay results are presented as the percent inhibition of light emission compared to control. […]
Type: functional
Conditions: sporozoite; for IC90: read-out: LUCIFERASE INFECTION ASSAY - IC90
[1] = read-out: LUCIFERASE INFECTION ASSAY - IC50

Structure (SMILES) | IC90 | other results
CC(=O)Nc1cccc(/C(C)=N/n2c(-c3cccc(Br)c3)cs/c2=N\c2ccc(F)cc2)c1 | 1.69 µM | IC50 (HEPG2TOX_HILL_SLOPE 2.5, HEPG2TOX_R_SQUARED 0.833, PBLUC_HILL_SLOPE 128, PBLUC_R_SQUARED 0.253, read-out: LUCIFERASE INFECTION ASSAY - IC50): 1.66 µM
CCOC(=O)c1c[nH]c2c(C)cc(Cl)cc2c1=O | > 12.4 µM | IC50 (PBLUC_HILL_SLOPE 15.3, PBLUC_R_SQUARED 0.364, read-out: LUCIFERASE INFECTION ASSAY - IC50): 11.2 µM
CCC(C)c1ccc(-c2cc(C(=O)OCC(=O)N3c4ccccc4NC(=O)C3(C)C)c3ccccc3n2)cc1 (stereo not given) | > 10 µM | IC50 [1]: 8.86 µM
CCCn1c(NC(=O)c2ccc3ccccc3n2)nc2ccccc21 | 3.56 µM | IC50 (PBLUC_HILL_SLOPE 15.7, PBLUC_R_SQUARED 0.527, read-out: LUCIFERASE INFECTION ASSAY - IC50): 3.1 µM
Cn1c(N)c(C(=O)CSc2nc(-c3ccccc3)c(-c3ccccc3)o2)c(=O)n(C)c1=O | > 10 µM | IC50 (HEPG2TOX_HILL_SLOPE 1.35, HEPG2TOX_R_SQUARED 0.367, PBLUC_HILL_SLOPE 15.8, PBLUC_R_SQUARED 0.143, read-out: LUCIFERASE INFECTION ASSAY - IC50): 9 µM
Oc1cc2c(cc1CN1CCN(Cc3ccc4c(c3)OCO4)CC1)CCC2 | > 10 µM | IC50 [1]: > 10 µM
C(=C\c1nc2ccccc2s1)/c1ccc(CN2CCCCC2)cc1 | 2.91 µM | IC50 (PBLUC_HILL_SLOPE 1.51, PBLUC_R_SQUARED 0.817, read-out: LUCIFERASE INFECTION ASSAY - IC50): 0.679 µM
FC(F)(F)c1nc2ccccc2nc1-n1nccc1-c1ccc(Cl)cc1 | > 8.81 µM | IC50 (FFLUC_HILL_SLOPE 16.3, FFLUC_R_SQUARED 0.637, HEPG2TOX_HILL_SLOPE 7.13, HEPG2TOX_R_SQUARED 0.448, PBLUC_HILL_SLOPE 3.24, PBLUC_R_SQUARED 0.732, read-out: LUCIFERASE INFECTION ASSAY - IC50): 5.14 µM
N=C1C(c2nc3ccccc3[nH]2)C(=O)CN1NC(=O)Cn1nnc(-c2cccc(C(F)(F)F)c2)n1 (stereo not given) | > 10 µM | IC50 [1]: > 10 µM
Cc1cc(=O)n2nc(CSc3nc4ccc(Cl)cc4c(=O)n3CC(C)C)sc2n1 | 4.07 µM | IC50 (PBLUC_HILL_SLOPE 10, PBLUC_R_SQUARED 0.71, read-out: LUCIFERASE INFECTION ASSAY - IC50): 3.27 µM
Cc1ccc(-c2cnc3ccc(NC4CCOCC4)nn23)cc1C | 4.53 µM | IC50 (HEPG2TOX_HILL_SLOPE 2.16, HEPG2TOX_R_SQUARED 0.752, PBLUC_HILL_SLOPE 1.94, PBLUC_R_SQUARED 0.563, read-out: LUCIFERASE INFECTION ASSAY - IC50): 1.46 µM
CNC(=O)c1nn(CC2CCCCC2)c2c1CC(NC1CCN(Cc3ccccc3)CC1)CC2 (stereo not given) | > 7.12 µM | IC50 (PBLUC_HILL_SLOPE 1.91, PBLUC_R_SQUARED 0.276, read-out: LUCIFERASE INFECTION ASSAY - IC50): 6.52 µM
CC(NC(=S)Nc1ccc(Oc2ccc(Cl)cc2)cc1)c1ccccc1 (stereo not given) | > 8.62 µM | IC50 [1]: 7.1 µM
CCCNC(=O)c1c(NC(=O)c2ccc(CC)cc2)nc2ccccn12 | 3.4 µM | IC50 (HEPG2TOX_HILL_SLOPE 3.85, HEPG2TOX_R_SQUARED 0.726, PBLUC_HILL_SLOPE 11.9, PBLUC_R_SQUARED 0.398, read-out: LUCIFERASE INFECTION ASSAY - IC50): 2.83 µM
CC(C)Nc1nc(NCC2CCCCC2)c2sccc2n1 | > 10.8 µM | IC50 (FFLUC_HILL_SLOPE 8.35, FFLUC_R_SQUARED 0.136, PBLUC_HILL_SLOPE 0.461, PBLUC_R_SQUARED 0.456, read-out: LUCIFERASE INFECTION ASSAY - IC50): 1.8 µM
COc1ccc(CO)c(Cl)c1OC | > 16.3 µM | IC50 [1]: > 16.3 µM
CN(C)c1nc(N)c2c(N)nc3c(cc(O)n3C(=O)NC34CC5CC(CC(C5)C3)C4)c2c1C#N | > 10 µM | IC50 [1]: 5.64 µM
CCN(CC)S(=O)(=O)c1ccc(C(C)NC(=O)c2cn(C)c3ccccc23)cc1 (stereo not given) | 6.07 µM | IC50 (PBLUC_HILL_SLOPE 2.76, PBLUC_R_SQUARED 0.764, read-out: LUCIFERASE INFECTION ASSAY - IC50): 2.73 µM
Cc1cc(NNC(=O)Nc2ccc(Cl)cc2)nc2c1c(C)nn2C | > 9.57 µM | IC50 (HEPG2TOX_HILL_SLOPE 1.06, HEPG2TOX_R_SQUARED 0.939, PBLUC_HILL_SLOPE 2, PBLUC_R_SQUARED 0.223, read-out: LUCIFERASE INFECTION ASSAY - IC50): 4.05 µM
FC(F)(F)c1cc(NC(=S)N2CCC(CCCC3CCN(C(=S)Nc4cc(C(F)(F)F)cc(C(F)(F)F)c4)CC3)CC2)cc(C(F)(F)F)c1 | > 4.38 µM | IC50 (FFLUC_HILL_SLOPE 260, FFLUC_R_SQUARED 0.348, HEPG2TOX_HILL_SLOPE 8.4, HEPG2TOX_R_SQUARED 0.678, PBLUC_HILL_SLOPE 17.9, PBLUC_R_SQUARED 0.0888, read-out: LUCIFERASE INFECTION ASSAY - IC50): > 4.38 µM

Structure (SMILES) | IC90 | other results
CC(c1ccccc1)N(C)C(=O)c1nn(-c2ccccc2)c2c1CCC2 (stereo not given) | > 10 µM | IC50 [1]: > 10 µM
CC(=O)c1ccc(N2CCN(c3nc4ccccc4s3)CC2)cc1 | > 10 µM | IC50 [1]: 3.62 µM
CC(C)(C)c1cc(C(=O)NNC(=O)Nc2cccc(C(F)(F)F)c2)n(Cc2ccccc2)n1 | > 7.18 µM | IC50 [1]: > 7.18 µM
CN(C)c1ccc(-c2cnc3cnc(-c4ccc(CNc5ccccc5)cc4)cn23)cc1 | > 7.87 µM | IC50 (PBLUC_HILL_SLOPE 1.8, PBLUC_R_SQUARED 0.529, read-out: LUCIFERASE INFECTION ASSAY - IC50): 4.22 µM
CC(OC(=O)c1cc(-c2ccccc2)nc2c1cnn2Cc1ccccc1)C(=O)NC(C)(C)C (stereo not given) | 6.73 µM | IC50 (PBLUC_HILL_SLOPE 5.07, PBLUC_R_SQUARED 0.772, read-out: LUCIFERASE INFECTION ASSAY - IC50): 4.36 µM
CNc1nc(-c2cccnc2)nc2sc(-c3ccccc3)cc12 | > 10 µM | IC50 (PBLUC_HILL_SLOPE 3.26, PBLUC_R_SQUARED 0.654, read-out: LUCIFERASE INFECTION ASSAY - IC50): 6.22 µM
COc1cccc(NC(=O)c2cc(C(C)(C)C)n(-c3ccccc3)c2C)c1 | > 9.1 µM | IC50 (PBLUC_HILL_SLOPE 0.223, PBLUC_R_SQUARED 0.111, read-out: LUCIFERASE INFECTION ASSAY - IC50): > 9.1 µM
Cn1ncc(C(C#N)c2nc3ccccc3s2)c(Cl)c1=O (stereo not given) | > 10 µM | IC50 [1]: > 10 µM
CC1(C)CC(=O)C/C(=N\Nc2nc(C(Cl)(Cl)Cl)nc3ccccc23)C1 | > 10 µM | IC50 (HEPG2TOX_HILL_SLOPE 0.517, HEPG2TOX_R_SQUARED 0.271, PBLUC_HILL_SLOPE 3.75, PBLUC_R_SQUARED 0.163, read-out: LUCIFERASE INFECTION ASSAY - IC50): 9.3 µM
COc1cccc(C(=O)Nc2ccc3nc(-c4cc(OC)c(OC)c(OC)c4)nn3c2)c1 | 7.64 µM | IC50 (PBLUC_HILL_SLOPE 1.78, PBLUC_R_SQUARED 0.523, read-out: LUCIFERASE INFECTION ASSAY - IC50): 2.22 µM
OCc1ccc(-c2cnc3cnc(-c4ccccc4Cl)cn23)cc1 | 9.11 µM | IC50 (HEPG2TOX_HILL_SLOPE 2.47, HEPG2TOX_R_SQUARED 0.702, PBLUC_HILL_SLOPE 3.47, PBLUC_R_SQUARED 0.368, read-out: LUCIFERASE INFECTION ASSAY - IC50): 4.84 µM
Cc1nn(-c2ccccc2Cl)c2sc(C(=O)NC3CCN(C(C)C)CC3)cc12 | > 10 µM | IC50 (PBLUC_HILL_SLOPE 2.83, PBLUC_R_SQUARED 0.189, read-out: LUCIFERASE INFECTION ASSAY - IC50): 5.04 µM
CC(=O)Nc1cccc2c1CCN(c1ncnc3sccc13)C2 | 3.46 µM | IC50 (PBLUC_HILL_SLOPE 34.6, PBLUC_R_SQUARED 0.49, read-out: LUCIFERASE INFECTION ASSAY - IC50): 3.25 µM
COc1ccc(-c2cnc3cnc(-c4ccccc4C)cn23)cc1 | 0.0475 µM | IC50 (HEPG2TOX_HILL_SLOPE 0.359, HEPG2TOX_R_SQUARED 0.561, PBLUC_HILL_SLOPE 8.88, PBLUC_R_SQUARED 0.713, read-out: LUCIFERASE INFECTION ASSAY - IC50): 0.0371 µM
Fc1ccc(-c2csc3ncnc(NCc4ccc(CN5CCOCC5)cc4)c23)cc1 | 7.44 µM | IC50 (HEPG2TOX_HILL_SLOPE 0.615, HEPG2TOX_R_SQUARED 0.878, PBLUC_HILL_SLOPE 1.43, PBLUC_R_SQUARED 0.575, read-out: LUCIFERASE INFECTION ASSAY - IC50): 1.59 µM
COc1ccc(N2CCN(CCCNc3ncnc4cc(Cl)ccc34)CC2)cc1 | 3.54 µM | IC50 (HEPG2TOX_HILL_SLOPE 6.44, HEPG2TOX_R_SQUARED 0.109, PBLUC_HILL_SLOPE 114, 20.9, PBLUC_R_SQUARED 0.138, 0.588, read-out: LUCIFERASE INFECTION ASSAY - IC50): 3.33 µM
Nc1c(C(=O)c2ccccc2O)cnn1-c1ccccc1C(F)(F)F | 3.04 µM | IC50 (FFLUC_HILL_SLOPE 18.9, FFLUC_R_SQUARED 0.573, PBLUC_HILL_SLOPE 1.34, PBLUC_R_SQUARED 0.647, read-out: LUCIFERASE INFECTION ASSAY - IC50): 0.594 µM
CCOC(=O)c1c(CN2C(=O)NC3(CCCc4sccc43)C2=O)nc2ccccc2c1C (stereo not given) | > 10 µM | IC50 [1]: > 10 µM
Cc1ccc(-n2c(C)cc(C(=O)COC(=O)c3cccn3C)c2C)cc1 | > 10 µM | IC50 (PBLUC_HILL_SLOPE 1.64, PBLUC_R_SQUARED 0.0485, read-out: LUCIFERASE INFECTION ASSAY - IC50): 5.54 µM
c1nc(NCc2ccc(CN3CCOCC3)cc2)c2c3c(sc2n1)CCC3 | 1.55 µM | IC50 (HEPG2TOX_HILL_SLOPE 1.37, HEPG2TOX_R_SQUARED 0.969, PBLUC_HILL_SLOPE 10, PBLUC_R_SQUARED 0.164, read-out: LUCIFERASE INFECTION ASSAY - IC50): 1.25 µM

From ChEMBL document CHEMBL4483862, “Open-source discovery of chemical leads for next-generation chemoprotective antimalarials” (2018)
